The experiment concerns the target T1, T1R1/T1R3 umami receptor (Homo sapiens, UniProt Q7RTX0+Q7RTX1, C757R).
T1 construct: expressed in transfected cells; host or cells: HEK293 cells, transiently transfected (Lipofectamine 2000)
T1 sequence (Q7RTX1 21-841): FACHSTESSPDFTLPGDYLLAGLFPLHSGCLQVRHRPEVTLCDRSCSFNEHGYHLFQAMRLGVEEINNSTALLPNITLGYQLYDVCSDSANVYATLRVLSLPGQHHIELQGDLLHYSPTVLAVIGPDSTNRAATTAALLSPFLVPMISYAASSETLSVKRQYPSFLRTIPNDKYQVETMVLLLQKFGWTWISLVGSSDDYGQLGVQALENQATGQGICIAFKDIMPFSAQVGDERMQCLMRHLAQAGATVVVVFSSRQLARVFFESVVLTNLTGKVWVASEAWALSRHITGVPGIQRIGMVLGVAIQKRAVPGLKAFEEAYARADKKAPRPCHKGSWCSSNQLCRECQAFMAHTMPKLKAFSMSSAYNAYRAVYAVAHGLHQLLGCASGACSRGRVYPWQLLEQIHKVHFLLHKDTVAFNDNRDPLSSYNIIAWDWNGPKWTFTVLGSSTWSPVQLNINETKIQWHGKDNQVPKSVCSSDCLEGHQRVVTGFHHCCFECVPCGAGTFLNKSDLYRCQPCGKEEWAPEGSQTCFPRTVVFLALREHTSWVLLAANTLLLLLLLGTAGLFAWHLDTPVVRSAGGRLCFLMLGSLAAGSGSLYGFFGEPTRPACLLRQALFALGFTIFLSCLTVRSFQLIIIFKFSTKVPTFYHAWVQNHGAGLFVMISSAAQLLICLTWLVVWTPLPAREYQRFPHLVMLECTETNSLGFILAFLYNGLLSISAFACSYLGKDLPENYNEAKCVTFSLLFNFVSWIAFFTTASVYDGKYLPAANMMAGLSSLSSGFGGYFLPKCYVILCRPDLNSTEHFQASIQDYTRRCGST
T1 sequence (Q7RTX0 with tags, fused parts or gaps C757R): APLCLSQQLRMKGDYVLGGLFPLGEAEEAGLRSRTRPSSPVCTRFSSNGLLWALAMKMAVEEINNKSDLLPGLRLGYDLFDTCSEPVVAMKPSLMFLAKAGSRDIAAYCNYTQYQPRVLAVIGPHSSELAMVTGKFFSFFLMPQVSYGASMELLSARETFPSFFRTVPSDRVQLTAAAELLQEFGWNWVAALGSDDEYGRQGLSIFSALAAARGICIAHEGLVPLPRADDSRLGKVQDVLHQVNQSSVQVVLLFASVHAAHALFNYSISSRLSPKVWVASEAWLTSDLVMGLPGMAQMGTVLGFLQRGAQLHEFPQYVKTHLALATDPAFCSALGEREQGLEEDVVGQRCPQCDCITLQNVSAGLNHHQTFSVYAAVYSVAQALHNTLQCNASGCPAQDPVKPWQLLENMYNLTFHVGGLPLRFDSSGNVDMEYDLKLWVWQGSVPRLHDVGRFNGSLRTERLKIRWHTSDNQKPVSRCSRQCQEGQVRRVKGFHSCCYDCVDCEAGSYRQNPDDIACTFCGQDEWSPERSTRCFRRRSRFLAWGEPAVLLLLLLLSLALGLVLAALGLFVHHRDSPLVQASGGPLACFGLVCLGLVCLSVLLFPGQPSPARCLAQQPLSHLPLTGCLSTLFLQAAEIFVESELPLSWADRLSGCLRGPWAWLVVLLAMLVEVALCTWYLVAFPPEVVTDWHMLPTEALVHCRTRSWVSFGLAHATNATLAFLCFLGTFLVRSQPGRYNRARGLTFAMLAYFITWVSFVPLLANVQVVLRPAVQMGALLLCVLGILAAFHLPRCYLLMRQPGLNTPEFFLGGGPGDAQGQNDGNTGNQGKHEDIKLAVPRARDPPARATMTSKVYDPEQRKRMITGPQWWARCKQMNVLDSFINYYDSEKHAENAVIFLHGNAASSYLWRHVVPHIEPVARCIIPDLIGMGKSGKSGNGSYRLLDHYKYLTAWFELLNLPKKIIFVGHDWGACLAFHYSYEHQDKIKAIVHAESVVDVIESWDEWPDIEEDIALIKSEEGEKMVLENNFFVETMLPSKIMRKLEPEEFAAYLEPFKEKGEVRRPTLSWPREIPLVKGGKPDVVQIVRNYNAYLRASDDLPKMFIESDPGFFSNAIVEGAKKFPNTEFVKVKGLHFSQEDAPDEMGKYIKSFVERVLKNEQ
Description: BRET assay (T1R1/T1R3-Rluc and GFP-2-β-arrestin-2 in HEK293 cells). It is filed as cell-based. More on the design: key: +: A BRET signal above the values achieved for buffer alone was defined as umami receptor-specific. Particulars: MSG 10 mM. The protocol:
FIG. 2 Activation of the T1R1/T1R3 umami receptor expressed in HEK293-Gα15 cells as measured by BRET assays as described in Example 2. Test solutions (or buffer) as indicated and substrate were added to the cells. The BRET signals were determined as the ratio between readings taken at the acceptor wavelength (515 nm) divided by the signals determined for the donor (400 nm). To correct for background signal due to overlap of donor emission at the acceptor wavelength, the BRET ratio was determined in parallel for cells expressing the donor alone (T1R1/T1R3-Rluc). This BRET background value was subtracted from the BRET value obtained for the cells expressing both BRET partners (BRET=BRET ratio−background ratio). A BRET signal above the values achieved for buffer alone was defined as umami receptor-specific (see also table 2B).
The extracts or crude mixtures described below are examples for natural samples unsuitable for testing with a calcium-based receptor assay due to their high non-specific background signal. They are from different origin and are selected to illustrate a wide range of potential test samples. […] Calcium-Based Receptor Assay: Activation of the T1R1/T1R3 umami receptor expressed in HEK293-Gα15 cells has been measured by monitoring the release of intracellular calcium. […]
(BRET reads energy transfer from a luciferase to a nearby fluorophore.)

This is an account of results in patent US8795977B2, “Method for screening a potential modulator compound of a taste receptor” (Conopco, Inc., priority 2009, dated 2014).

The structures appear in SMILES notation.

Take `N[C@@H](CCC(=O)O)C(=O)[O-].[Na+]` [MSG, Monosodium glutamate]: the “T1R1/T1R3 receptor-specific signal, BRET assay” value is “+”.
